The source of these data is US20210238197A1, “NOVEL OXOQUINOLIZINE COMPOUNDS FOR THE TREATMENT AND PROPHYLAXIS OF BACTERIAL INFECTION” (Hoffmann-La Roche Inc., priority 2018, published 2021).

Usually IC50 stands for the concentration needed to halve the response being measured. Broadly, the CC50 is the concentration giving 50% cytotoxicity. What is called solubility (thermodynamic) is solubility found after equilibrating the solid with the medium.

The structures appear in SMILES notation. Converted amounts (≈) assume the structure as drawn. Where two headings read alike, the source gives them in different places. Bounds are passed on as bounds.

For data set [1], the system named is A. baumannii (ATCC17978). Briefly: 50% growth inhibitory concentration (IC50) determination assay, A. baumannii. The format is cell-based. As to conditions: Acinetobacter baumannii, ATCC17978; Iso-Sensitest broth, growth by OD 600 nm over 16 h; <0.098 = detection limit. Put shortly:
(§1)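 Compounds two-fold diluted from 50 to 0.097 μM (final) in Iso-Sensitest broth, inoculum ~5×10^5 CFU/mL. Incubation at 35±2 °C with OD600 read every 20 min over 16 h to track growth.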

A short description of data set [2]: Single dose PK study (SDPK) in female CD-1 mouse. The format is in vivo. As to conditions: IV bolus, 1.0 mg/kg solution; for clearance: plasma, read-out: CL total. The method, then:
The single dose PK in female CD-1 mouse was performed to assess compound's pharmacokinetic properties. One group of animals were dosed via bolus intravenous (IV) of the respective compound. Blood samples (approximately 30 μL) were collected via saphenous vein at 5 mins, 15 min, 30 min, 1 hr, 2 hr, 4 hr and 7 hr. For last time point (24 hr), samples were collected via cardiac puncture while the mouse was under anesthesia. Blood samples were placed into tubes containing EDTA-K2 anticoagulant (2 μL of 0.5M per tube) and centrifuged at 3000 rpm for 10 minutes at 4° C. within half an hour to separate plasma from the samples. Following centrifugation, plasma samples were stored in polypropylene tubes, quick frozen over dry ice and kept at −70±10° C. until LC/MS/MS analysis. The pharmacokinetic parameters were calculated using non-compartmental module of WinNonlin® Professional 6.4.

Data set [3] concerns multiple species and strains. Briefly: microbe, parasite or virus in culture. On the set-up: MIC S9 / MIC S7 / MIC S11 / MIC S8 / MIC S10: unit not given beside the values. As to conditions: for MIC S9: E. coli ATCC 35218. In short, it runs like this:
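Broth microdilution per CLSI M07-A10 in CAMHB, CAMHB+3% lysed horse blood or HTM. Inoculum was set to OD600 ~0.1, then diluted 1:280 (Gram-positive) or 1:400 (Gram-negative), and plates were incubated 18-24 h at 35±2° C in ambient air. MIC (μg/mL) is the lowest concentration giving no visible growth.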

Data set [4] relates to S. aureus (ATCC29213). Briefly: 50% growth inhibitory concentration (IC50) determination assay, S. aureus. The data set is classed as cell-based. As to conditions: Staphylococcus aureus, ATCC29213; Iso-Sensitest broth, growth by OD 600 nm over 16 h; <0.098 = detection limit. In short, it runs like this: as §1
In data set [5] the test system is K. pneumoniae (ATCC10031). As to the kind of experiment: 50% growth inhibitory concentration (IC50) determination assay, K. pneumoniae. As to conditions: Klebsiella pneumoniae, ATCC10031; Iso-Sensitest broth, growth by OD 600 nm over 16 h; <0.098 = detection limit. The format is cell-based. In short, it runs like this: as §1
Data set [6] can be described thus: Cytotoxicity assay (HepG2, CellTiter-Blue). The format is cell-based. As to conditions: human; HepG2 cells, 3 days treatment; >100 = detection limit. The method, then: The cytotoxicity of compounds of present invention was assessed by HepG2 assay. HepG2 cells (ATCC RB-8065™) were seeded into 96-well plates (1.2×10^4 cells per well) and treated with compounds for 3 days, cell viability was measured at day 3 post compound treatment using the CellTiter-Blue® Cell Viability Assay (Promega, Cat. No. G8082). […], of Cell titer blue buffer were added to each well of the cells, which were incubated for 3 hours at 37° C., and the fluorescence value was measured by a plate reader (Molecular Device SpectraMax M2). The CC50 value of each compound is plotted with GraphPad Prism using four parameter logistic equation.
On the technique in general: The colour change of resazurin is a common sign of viable cells or microbes.

Data set [7] is described as follows: Lyophilisation solubility assay (LYSA). The format is physicochemical. The conditions noted are these: aqueous buffer, thermodynamic from solid; 0.05 M phosphate buffer, pH 6.5; <1.0 = detection limit. The method, then:
The solubility of compounds of present invention was assessed by LYSA assay. Samples were prepared in duplicate from 10 mM DMSO stock solutions (20 μL) diluted in 30 μL pure DMSO. After evaporation of DMSO with a centrifugal vacuum evaporator, the residue was dissolved in 0.05 M phosphate buffer (150 μL, pH 6.5), which was stirred for one hour and shook for two hours. After one night, the solution was filtered using a microtiter filter plate. Then the filtrate and its 1/10 dilution were analyzed by HPLC-UV. In addition a four-point calibration curve was prepared from the 10 mM stock solutions and used for the solubility determination of the compounds.

The mark [8] stands for this setting: Acinetobacter baumannii, ATCC19606, read-out: MIC S1, A. baumannii ATCC 19606.
Where [9] appears, read: Acinetobacter baumannii, ATCC51432, read-out: MIC S2, A. baumannii ATCC 51432.
Setting [10] is: Acinetobacter baumannii, ATCCBAA747, read-out: MIC S3, A. baumannii ATCC BAA-747.
Where [11] appears, read: Escherichia coli, ATCC25922, read-out: MIC S11, E. coli ATCC 25922.
The mark [12] stands for this setting: Escherichia coli, ATCCBAA2340, read-out: MIC S10, E. coli ATCC BAA-2340.
The mark [13] stands for this setting: Klebsiella pneumoniae, ATCC10031, read-out: MIC S4, K. pneumoniae ATCC 10031.
Where [14] appears, read: Klebsiella pneumoniae, ATCC700603, read-out: MIC S5, K. pneumoniae ATCC 700603.
Setting [15] is: Klebsiella pneumoniae, ATCCBAA2146, read-out: MIC S6, K. pneumoniae ATCC BAA-2146.
The mark [16] stands for this setting: Pseudomonas aeruginosa, ATCC27853, read-out: MIC S7, P. aeruginosa ATCC 27853.
[17] abbreviates: Pseudomonas aeruginosa, ATCCBAA2113, read-out: MIC S8, P. aeruginosa ATCC BAA-2113.

On to `CNc1cc(F)c(C#N)c2c1[nH]c1ncc(-c3ccc4ccc(C(=O)O)c(=O)n4c3)c(N3CC[C@H]4CN(C)C[C@H]43)c12` [Example 1.14, 7-[4-[(3aS,6aS)-5-methyl-2,3,3a,4,6,6a-hexahydropyrrolo[2,3-c]pyrrol-1-yl]-5-cyano-6-fluoro-8-(methylamino)-9H-pyrido[2,3-b]indol-3-yl]-4-oxo-quinolizine-3-carboxylic acid], for which the IC50 in data set [1], in data set [4] and in data set [5] was under 98 nM throughout. This compound also yielded an AUC total in data set [2] of 214 ng·h/mL. The clearance in data set [2] is 78.7 mL/min/kg. For the same compound, the MIC in data set [3] (setting [8]) is 0.108 µg/mL (≈ 0.196 µM); in data set [3] (setting [9]) it was 0.215 µg/mL (≈ 0.39 µM); in data set [3] (setting [10]), 0.215 µg/mL (≈ 0.39 µM); in data set [3] (setting [11]), 0.04 µg/mL (≈ 0.0725 µM); in data set [3] (setting [12]) it was 0.215 µg/mL (≈ 0.39 µM); in data set [3] (setting [13]), 0.027 µg/mL (≈ 0.049 µM). Also, the MIC in data set [3] (setting [14]) turned out to be 1.72 µg/mL (≈ 3.13 µM); in data set [3] (setting [15]) it was 0.86 µg/mL (≈ 1.56 µM); in data set [3] (setting [16]), 0.86 µg/mL (≈ 1.56 µM); in data set [3] (setting [17]) it was 1.72 µg/mL (≈ 3.13 µM). The “MIC S9” value in data set [3] turned out to be 0.108. In addition, the CC50 at 3 days in data set [6] is 15300 nM.
The compound `CNc1cc(F)c(F)c2c1[nH]c1ncc(-c3ccc4c(CN5CCCC5)cc(C(=O)O)c(=O)n4c3)c(N3CC[C@H]4CN(C)C[C@H]43)c12` (relative stereo) [Example 2.10, 7-[4-[cis-5-methyl-2,3,3a,4,6,6a-hexahydropyrrolo[2,3-c]pyrrol-1-yl]-5,6-difluoro-8-(methylamino)-9H-pyrido[2,3-b]indol-3-yl]-4-oxo-1-(pyrrolidin-1-ylmethyl)quinolizine-3-carboxylic acid] showed a solubility (thermodynamic) in data set [7] of over 940 µg/mL. In data set [6], this compound came in with a CC50 at 3 days of 89200 nM.
`CNc1cc(F)c(C#N)c2c1[nH]c1ncc(-c3ccc4ccc(C(=O)O)c(=O)n4c3)c(N3CC[C@H]4CCN(C)C4C3)c12` (stereo in doubt) [Example 1.17, 7-[4-[cis-1-methyl-3,3a,4,5,7,7a-hexahydro-2H-pyrrolo[2,3-c]pyridin-6-yl]-5-cyano-6-fluoro-8-(methylamino)-9H-pyrido[2,3-b]indol-3-yl]-4-oxo-quinolizine-3-carboxylic acid] returned a solubility (thermodynamic) in data set [7] of 12 µg/mL (≈ 21.2 µM). Moreover, the concentration for half-maximal inhibition (IC50) in data set [1] is under 98 nM; in data set [4] it was 139 nM; in data set [5] it was under 98 nM. For the same compound, the MIC in data set [3] (setting [8]) is 0.882 µg/mL (≈ 1.56 µM); in data set [3] (setting [9]), 0.882 µg/mL (≈ 1.56 µM); in data set [3] (setting [10]), 0.882 µg/mL (≈ 1.56 µM); in data set [3] (setting [11]), 0.166 µg/mL (≈ 0.293 µM); in data set [3] (setting [12]) it was 0.882 µg/mL (≈ 1.56 µM); in data set [3] (setting [13]), 0.028 µg/mL (≈ 0.0495 µM). In addition, the MIC in data set [3] (setting [14]) was 3.54 µg/mL (≈ 6.25 µM); in data set [3] (setting [15]) it was 3.54 µg/mL (≈ 6.25 µM); in data set [3] (setting [16]), 0.882 µg/mL (≈ 1.56 µM); in data set [3] (setting [17]) it was 3.54 µg/mL (≈ 6.25 µM). In addition, the “MIC S9” value in data set [3] stood at 0.882.
`CNc1cc(F)cc2c1[nH]c1ncc(-c3ccc4ccc(C(=O)O)c(=O)n4c3)c(N3CC[C@@H]4CN(C)C[C@@H]43)c12` (single isomer, unassigned) [Example 3.02B] gave a thermodynamic solubility in data set [7] of over 683 µg/mL. Moreover, the IC50 in data set [1] was 483 nM; in data set [4], 1280 nM; in data set [5] it was under 98 nM.
`CNc1cc(F)cc2c1[nH]c1ncc(-c3ccc4ccc(C(=O)O)c(=O)n4c3)c(N3CC[C@H]4CN(C)C[C@H]43)c12` (single isomer, unassigned) [Example 3.02A]: the solubility (thermodynamic) in data set [7] was found to be 559 µg/mL (≈ 1060 µM). The IC50 in data set [1] was under 98 nM; in data set [4], 102 nM; in data set [5] it was under 98 nM. Further, half-maximal cytotoxicity in data set [6] (CC50 at 3 days) was put at 41300 nM.
As to `CNc1cc(F)c(F)c2c1[nH]c1ncc(-c3cc(F)c4ccc(C(=O)O)c(=O)n4c3)c(N3CC[C@H]4CN(C)C[C@H]43)c12` (relative stereo) [Example 2.02, 7-[4-[cis-5-methyl-2,3,3a,4,6,6a-hexahydropyrrolo[2,3-c]pyrrol-1-yl]-5,6-difluoro-8-(methylamino)-9H-pyrido[2,3-b]indol-3-yl]-9-fluoro-4-oxo-quinolizine-3-carboxylic acid], the solubility (thermodynamic) in data set [7] worked out at 58 µg/mL (≈ 103 µM). Moreover, the IC50 in data set [1] was under 98 nM; in data set [4] it was 108 nM; in data set [5], under 98 nM.
With `CNc1cc(F)c(Cl)c2c1[nH]c1ncc(-c3ccc4ccc(C(=O)O)c(=O)n4c3)c(N3CC[C@]4(C[C@@H]4N)C3)c12` [Example 5.01D, 7-(4-((1S,3S)-1-amino-5-azaspiro[2.4]heptan-5-yl)-5-chloro-6-fluoro-8-(methylamino)-9H-pyrido[2,3-b]indol-3-yl)-4-oxo-4H-quinolizine-3-carboxylic acid], the IC50 in data set [1], in data set [4] and in data set [5] was under 98 nM in each case. In data set [2], this compound yielded an AUC total of 180 ng·h/mL. For the same compound, the clearance in data set [2] turned out to be 93 mL/min/kg. The compound further yielded a CC50 at 3 days in data set [6] of over 100000 nM.
As to `CNc1cc(F)cc2c1[nH]c1ncc(-c3ccc4ccc(C(=O)O)c(=O)n4c3)c(N3C[C@@H]4CCN(C)[C@@H]4C3)c12` (single isomer, unassigned) [Example 3.01B], the thermodynamic solubility in data set [7] is 16 µg/mL (≈ 30.4 µM). In addition, the IC50 in data set [1], in data set [4] and in data set [5] was under 98 nM throughout.
`CNc1cc(F)c(F)c2c1[nH]c1ncc(-c3ccc4c(CN(C)C)cc(C(=O)O)c(=O)n4c3)c(N3CC[C@H]4CN(C)C[C@H]43)c12` (relative stereo) [Example 2.03, 7-[4-[cis-5-methyl-2,3,3a,4,6,6a-hexahydropyrrolo[2,3-c]pyrrol-1-yl]-5,6-difluoro-8-(methylamino)-9H-pyrido[2,3-b]indol-3-yl]-1-[(dimethylamino)methyl]-4-oxo-quinolizine-3-carboxylic acid]: in data set [7], the thermodynamic solubility was over 1060 µg/mL. Further, the IC50 in data set [1] was under 98 nM; in data set [4], 194 nM; in data set [5] it was under 98 nM. Further, half-maximal cytotoxicity in data set [6] (CC50 at 3 days) was put at 46400 nM.
`CNc1cc(F)c(F)c2c1[nH]c1ncc(-c3ccc4c(CN5CCOCC5)cc(C(=O)O)c(=O)n4c3)c(N3CC[C@H]4CN(C)C[C@H]43)c12` (relative stereo) [Example 2.09, 7-[4-[cis-5-methyl-2,3,3a,4,6,6a-hexahydropyrrolo[2,3-c]pyrrol-1-yl]-5,6-difluoro-8-(methylamino)-9H-pyrido[2,3-b]indol-3-yl]-1-(morpholinomethyl)-4-oxo-quinolizine-3-carboxylic acid] yielded a thermodynamic solubility in data set [7] of 795 µg/mL (≈ 1240 µM). The IC50 in data set [1] is under 98 nM; in data set [4], 174 nM; in data set [5], under 98 nM. The same compound came in with a CC50 at 3 days in data set [6] of 86900 nM.
